Values quoted from earlier work in paper PMC7763995 (Molecules, 2020).

Test system: AChE-induced Aβ aggregation
Set-up: method as in PMID 12527333
Conditions: at 100 μM; cited from earlier work

## CC[N+](C)(CC)CCC[n+]1c(-c2ccccc2)c2cc(N)ccc2c2ccc(N)cc21 [Propidium, propidium]
  Decrease in AChE-induced Aβ aggregation: 82%
